Experiments:
[1] = system: patients with schizophrenia or schizoaffective disorders; test: InterSePT pharmacogenetic analysis: DAT1 3'UTR VNTR polymorphism vs Type 1 event / drug response; assay type: in vivo, human; conditions: for Adjusted Hazard Ratio (95% CI), association between VNTR polymorphism and Type 1 event: Cox model adjusted for age, gender, substance abuse, lifetime suicide attempts; for Unadjusted Hazard Ratio (95% CI), association between VNTR polymorphism and Type 1 event: Cox proportional hazards model
Experimental: Association between a VNTR polymorphism in the 3′UTR region of the DAT1 gene and clozapine response. The objective of this EXAMPLE was to evaluate potential association between a VNTR polymorphism in the 3′UTR region of the Dopamine Transporter 1 gene (SLC6A3; DAT1) and drug response in the patients with schizophrenia or schizoaffective disorders treated with clozapine.
A retrospective pharmacogenetic analysis was conducted in an attempt to evaluate potential association between a variable number of tandem repeats (VNTR) polymorphism in the 3′UTR region of the DAT1 gene and drug response in the patients with schizophrenia or schizoaffective disorders treated with clozapine.
A multicenter, randomized, two-year study comparing the risk for suicidal behaviour in patients treated with clozapine vs olanzapine had already been conducted in patients with schizophrenia or schizoaffective disorders (see above). […] See, published PCT patent application WO 2004/074513.
Genotyping. Four hundred and two samples from the patients enrolled in the InterSePT study (see above) were collected and genotyped for the VNTR polymorphism. A total of 402 subjects enrolled in the InterSePT study consented to Pharmacogenetics study in accordance with protocols approved by local ethics committees. 15 ml of blood were collected from the patients at the trial sites. The DNA was extracted by Covance (Indianapolis, USA) using the PUREGENE™ DNA Isolation Kit (D50K) according to the manufacturer's recommendations. VNTR genotyping was performed using PCR approach as described by Kidd (Kidd Laboratory, http://info.med.yale.edu/genetics/kkidd/SLC6A3—3VNTR.html). The sense and antisense PCR primers were 5′-GGTGTAGGGAACGGCCTGAGAG-3′ (SEQ ID NO:3) and 5′-CTTCCTGGAGGTCACGGCTCAAGG-3′ (SEQ ID NO:4), respectively. Approximately 100-200 ng of genomic DNA was needed for each assay. Thirty cycles of PCR were performed with the condition of 94° C. (30″), 62° C. (30″) and 72° C. (30″). PCR products were analyzed using 2% agarose gel.
Clinical assessments. For the primary efficacy variable, time (in days, after randomization) to meeting any one of the following two criteria: (a) a significant suicide attempt; and (b) hospitalization due to imminent suicide risk. Type 1 Event is defined as combination of above two items. For secondary efficacy variables, the following were determined: (a) percentage of subjects with significant suicide attempts; (b) percentage of subjects with hospitalization due to imminent suicide risk; (c) change from baseline in the total score of the Positive and Negative Syndrome Scale (PANSS); (d) change from baseline in the Positive subtotal of PANSS; and (e) change from baseline in the Negative subtotal of PANSS.
Statistic analysis. The SAS Version 8.2 for Windows package was used for statistical analysis. The continuous and dischotomous variables in demographic differences between the genotype groups were compared using non-parametric ANOVA and Fisher's exact test, respectively. The differential effects of genotypes on the time to Type 1 event were evaluated using log rank test. Age, gender, substance abuse, and lifetime suicide attempts were adjusted in further analysis using the Cox proportional hazards model.

[2] = system: patients with schizophrenia or schizoaffective disorders; test: as above; assay type: in vivo, human
[3] = All with schizoaffective disorder, genotype L/L (10≦/10≦)
[4] = All with schizoaffective disorder, genotype S/L (10≦/9≧)
[5] = All with schizoaffective disorder, genotype S/S (9≧/9≧)
[6] = All with schizophrenia, genotype L/L (10≦/10≦)
[7] = All with schizophrenia, genotype S/L (10≦/9≧)
[8] = All with schizophrenia, genotype S/S (9≧/9≧)
[9] = Caucasian, VNTR genotype 9≧/9≧, end of study
[10] = Caucasian, VNTR genotype 10≦/9≧, end of study
[11] = Caucasian, VNTR genotype 10≦/10≦, end of study
[12] = Caucasians with schizoaffective disorder, genotype L/L (10≦/10≦)
[13] = Caucasians with schizoaffective disorder, genotype S/L (10≦/9≧)
[14] = Caucasians with schizoaffective disorder, genotype S/S (9≧/9≧)
[15] = Caucasians with schizophrenia, genotype L/L (10≦/10≦)
[16] = Caucasians with schizophrenia, genotype S/L (10≦/9≧)
[17] = Caucasians with schizophrenia, genotype S/S (9≧/9≧)
[18] = Whole race group, VNTR genotype 9≧/9≧, end of study
[19] = Whole race group, VNTR genotype 10≦/9≧, end of study
[20] = Whole race group, VNTR genotype 10≦/10≦, end of study

CN1CCN(C2=Nc3cc(Cl)ccc3Nc3ccccc32)CC1 [Clozapine, 8-chloro-11-(4-methyl-1-piperazinyl)-5H-dibenzo[be][1,4]diazepine]
End point Type 1 event: No [1, 3]: 30 (75%) numbers of subjects (%) | End point Type 1 event: Yes [1, 3]: 10 (25%) numbers of subjects (%) | End point Type 1 event: No [1, 4]: 25 (83%) numbers of subjects (%) | End point Type 1 event: Yes [1, 4]: 5 (17%) numbers of subjects (%) | End point Type 1 event: No [1, 5]: 7 (70%) numbers of subjects (%) | End point Type 1 event: Yes [1, 5]: 3 (30%) numbers of subjects (%) | End point Type 1 event: No [1, 6]: 53 (87%) numbers of subjects (%) | End point Type 1 event: Yes [1, 6]: 8 (13%) numbers of subjects (%) | End point Type 1 event: No [1, 7]: 35 (87%) numbers of subjects (%) | End point Type 1 event: Yes [1, 7]: 5 (13%) numbers of subjects (%) | End point Type 1 event: No [1, 8]: 4 (50%) numbers of subjects (%) | End point Type 1 event: Yes [1, 8]: 4 (50%) numbers of subjects (%) | End point Type 1 event: No [1, 9]: 9 (56%) numbers of subjects (%) | End point Type 1 event: Yes [1, 9]: 7 (44%) numbers of subjects (%) | End point Type 1 event: No [1, 10]: 45 (85%) numbers of subjects (%) | End point Type 1 event: Yes [1, 10]: 8 (15%) numbers of subjects (%) | End point Type 1 event: No [1, 11]: 67 (83%) numbers of subjects (%) | End point Type 1 event: Yes [1, 11]: 14 (17%) numbers of subjects (%) | End point Type 1 event: No [1, 12]: 28 (76%) numbers of subjects (%) | End point Type 1 event: Yes [1, 12]: 9 (24%) numbers of subjects (%) | End point Type 1 event: No [1, 13]: 22 (85%) numbers of subjects (%) | End point Type 1 event: Yes [1, 13]: 4 (15%) numbers of subjects (%) | End point Type 1 event: No [1, 14]: 7 (70%) numbers of subjects (%) | End point Type 1 event: Yes [1, 14]: 3 (30%) numbers of subjects (%) | End point Type 1 event: No [1, 15]: 39 (89%) numbers of subjects (%) | End point Type 1 event: Yes [1, 15]: 5 (11%) numbers of subjects (%) | End point Type 1 event: No [1, 16]: 23 (85%) numbers of subjects (%) | End point Type 1 event: Yes [1, 16]: 4 (15%) numbers of subjects (%) | End point Type 1 event: No [1, 17]: 2 (33%) numbers of subjects (%) | End point Type 1 event: Yes [1, 17]: 4 (67%) numbers of subjects (%) | Adjusted Hazard Ratio (95% CI), association between VNTR polymorphism and Type 1 event ([1]; Caucasians): 0.296 (0.120-0.733) | Unadjusted Hazard Ratio (95% CI), association between VNTR polymorphism and Type 1 event ([1]; Caucasians): 0.307 (0.130-0.723) | End point Type 1 event: No [1, 18]: 11 (61%) numbers of subjects (%) | End point Type 1 event: Yes [1, 18]: 7 (39%) numbers of subjects (%) | End point Type 1 event: No [1, 19]: 60 (86%) numbers of subjects (%) | End point Type 1 event: Yes [1, 19]: 10 (14%) numbers of subjects (%) | End point Type 1 event: No [1, 20]: 83 (82%) numbers of subjects (%) | End point Type 1 event: Yes [1, 20]: 18 (18%) numbers of subjects (%) | patients calculated to be poor responders ([1]; according to the SLC6A3 genotypes): about 10% | Adjusted Hazard Ratio (95% CI), association between VNTR polymorphism and Type 1 event ([1]; whole population): 0.396 (0.167-0.936) | Unadjusted Hazard Ratio (95% CI), association between VNTR polymorphism and Type 1 event ([1]; whole population): 0.342 (0.148-0.788) | patients who experienced Type 1 events at the end of study ([2]; subpopulation with the two risk factors (VNTR in 3'-UTR and exon 9 polymorphism of SLC6A3)): About 40% | patients who had Type 1 events at the end of study ([2]; subpopulation without the two risk factors (VNTR in 3'-UTR and exon 9 polymorphism of SLC6A3)): 15%

Cc1cc2c(s1)Nc1ccccc1N=C2N1CCN(C)CC1 [Olanzapine, olanzapine]
End point Type 1 event: No [1, 3]: 22 (60%) numbers of subjects (%) | End point Type 1 event: Yes [1, 3]: 15 (40%) numbers of subjects (%) | End point Type 1 event: No [1, 4]: 22 (67%) numbers of subjects (%) | End point Type 1 event: Yes [1, 4]: 11 (33%) numbers of subjects (%) | End point Type 1 event: No [1, 5]: 4 (57%) numbers of subjects (%) | End point Type 1 event: Yes [1, 5]: 3 (43%) numbers of subjects (%) | End point Type 1 event: No [1, 6]: 50 (82%) numbers of subjects (%) | End point Type 1 event: Yes [1, 6]: 11 (18%) numbers of subjects (%) | End point Type 1 event: No [1, 7]: 32 (76%) numbers of subjects (%) | End point Type 1 event: Yes [1, 7]: 10 (24%) numbers of subjects (%) | End point Type 1 event: No [1, 8]: 8 (80%) numbers of subjects (%) | End point Type 1 event: Yes [1, 8]: 2 (20%) numbers of subjects (%) | End point Type 1 event: No [1, 9]: 6 (60%) numbers of subjects (%) | End point Type 1 event: Yes [1, 9]: 4 (40%) numbers of subjects (%) | End point Type 1 event: No [1, 10]: 45 (76%) numbers of subjects (%) | End point Type 1 event: Yes [1, 10]: 14 (24%) numbers of subjects (%) | End point Type 1 event: No [1, 11]: 59 (76%) numbers of subjects (%) | End point Type 1 event: Yes [1, 11]: 19 (24%) numbers of subjects (%) | End point Type 1 event: No [1, 12]: 22 (67%) numbers of subjects (%) | End point Type 1 event: Yes [1, 12]: 11 (33%) numbers of subjects (%) | End point Type 1 event: No [1, 13]: 21 (75%) numbers of subjects (%) | End point Type 1 event: Yes [1, 13]: 7 (25%) numbers of subjects (%) | End point Type 1 event: No [1, 14]: 3 (50%) numbers of subjects (%) | End point Type 1 event: Yes [1, 14]: 3 (50%) numbers of subjects (%) | End point Type 1 event: No [1, 15]: 37 (82%) numbers of subjects (%) | End point Type 1 event: Yes [1, 15]: 8 (18%) numbers of subjects (%) | End point Type 1 event: No [1, 16]: 24 (77%) numbers of subjects (%) | End point Type 1 event: Yes [1, 16]: 7 (23%) numbers of subjects (%) | End point Type 1 event: No [1, 17]: 3 (75%) numbers of subjects (%) | End point Type 1 event: Yes [1, 17]: 1 (25%) numbers of subjects (%) | Adjusted Hazard Ratio (95% CI), association between VNTR polymorphism and Type 1 event ([1]; Caucasians): 0.542 (0.185-1.590) | Unadjusted Hazard Ratio (95% CI), association between VNTR polymorphism and Type 1 event ([1]; Caucasians): 0.548 (0.194-1.547) | End point Type 1 event: No [1, 18]: 12 (71%) numbers of subjects (%) | End point Type 1 event: Yes [1, 18]: 5 (29%) numbers of subjects (%) | End point Type 1 event: No [1, 19]: 54 (72%) numbers of subjects (%) | End point Type 1 event: Yes [1, 19]: 21 (28%) numbers of subjects (%) | End point Type 1 event: No [1, 20]: 72 (73%) numbers of subjects (%) | End point Type 1 event: Yes [1, 20]: 26 (27%) numbers of subjects (%) | Adjusted Hazard Ratio (95% CI), association between VNTR polymorphism and Type 1 event ([1]; whole population): 0.824 (0.317-2.138) | Unadjusted Hazard Ratio (95% CI), association between VNTR polymorphism and Type 1 event ([1]; whole population): 0.886 (0.353-2.225)
